Measurements from patent US5827245A, “Transdermal therapeutic system comprising the active subtance 17-β-Estradiol (Anhydrous)” (LTS Lohmann Therapie-Systeme GmbH & Co. KG, priority 1992, dated 1998).

Assays:
[1] = short period of time; cited from earlier work
[2] = Thermal stability / conversion of 17-β-estradiol semihydrate to the anhydrous form; type: physicochemical
Procedure: At room temperature and usual relative humidity of air (20 to 60% relative humidity), 17-β-estradiol is not present in one of the two known modifications (I and II) which are free from crystal water but as a semihydrate (Busetti a. Hospital, Acta Cryst. 1972, B28, 560). Due to the stratified structure of the crystal compound, which is stabilized by hydrogen bridges, and its diffusion density, the hydrate can be heated for a short period of time to temperatures of about 170° C. (Kuhnert-Brandstatter u. Winkler (1976) Scientia Pharmaceutica 44 (3), 177-190) while remaining undecomposed. However, by way of micronization, i.e. increasing the surface of the crystals, it is possible to quantitatively convert 17-β-estradiol semihydrate to its anhydrous form at as low a temperature as about 120° C. According to our own observations, conversion already occurs at about 90° C. where heating is slow (0.2 to 1 K/min) and particularly fine material is used.

Compound: C[C@]12CC[C@@H]3c4ccc(O)cc4CC[C@H]3[C@@H]1CC[C@@H]2O [17-β-estradiol semihydrate]
- temperature to which the hydrate can be heated while remaining undecomposed [1]: about 170 °C
- temperature of quantitative conversion to the anhydrous form ([2]; micronized): about 120 °C
- temperature at which conversion already occurs ([2]; slow heating (0.2 to 1 K/min), particularly fine material, own observations): about 90 °C
